Assay results taken from paper PMC10184535, “An HR2-Mimicking Sulfonyl-γ-AApeptide Is a Potent Pan-coronavirus Fusion Inhibitor with Strong Blood–Brain Barrier Permeability, Long Half-Life, and Promising Oral Bioavailability” (ACS Central Science, 2023).
pIC50, pKd: −log10 of the molar value. Where two headings read alike, the source gives them in different places.

Experiments:
[1] = test system: pseudotyped bat SARSr-CoV WIV1; details: 48 h
[2] = test system: SARS-CoV-2 PsV; details: previously reported EK1 peptide; read-out: IC50, SARS-CoV-2 PsV infection, previously reported; cited from earlier work
[3] = test system: pseudotyped SARS-CoV; details: 48 h
[4] = test system: pseudotyped MERS-CoV; details: 48 h
[5] = test system: pseudotyped HCoV-NL63; details: 48 h
[6] = target: T1, HR1 peptide (911–987) (Severe acute respiratory syndrome coronavirus 2, UniProt P0DTC2); experiment: Fluorescence polarization binding to HR1 peptide; set-up: species or system SARS-CoV-2
T1 construct: purchased NovoPep Limited

[7] = test system: SARS-CoV-2 PsV; details: 48 h
[8] = PAMPA-GIT; details: at three different pH values

Compound | pKd [6] | pIC50 [7] | further results
CC[C@H](C)[C@H](NC(=O)[C@H](C)NC(=O)[C@H](CCC(=O)O)NC(=O)[C@H](CCC(=O)O)NC(=O)[C@H](CC(C)C)NC(=O)[C@H](CCCCN)NC(=O)[C@H](CCCCN)NC(=O)[C@H](CCSC)NC(=O)[C@H](CCC(=O)O)NC(=O)[C@H](Cc1ccc(O)cc1)NC(=O)[C@H](CCC(=O)O)NC(=O)[C@H](CC(C)C)NC(=O)[C@H](CC(=O)O)NC(=O)[C@H](CC(C)C)NC(=O)[C@H](Cc1ccccc1)NC(=O)[C@@H](NC(=O)[C@@H](NC(=O)[C@H](CC(N)=O)NC(=O)[C@@H](NC(=O)[C@H](CCC(N)=O)NC(=O)[C@H](CC(=O)O)NC(=O)[C@H](CC(C)C)NC(=O)[C@@H](N)CO)[C@@H](C)CC)C(C)C)[C@@H](C)O)C(=O)N[C@@H](CCCCN)C(=O)N[C@@H](CCCCN)C(=O)N[C@@H](CC(C)C)C(=O)N[C@@H](CCC(=O)O)C(=O)N[C@@H](CCC(=O)O)C(=O)N[C@@H](CO)C(=O)N[C@@H](Cc1ccc(O)cc1)C(=O)N[C@H](C(=O)N[C@@H](CC(=O)O)C(=O)N[C@@H](CC(C)C)C(=O)N[C@@H](CCCCN)C(=O)N[C@@H](CCC(=O)O)C(=O)N[C@@H](CC(C)C)C(=O)O)[C@@H](C)CC [EK1] |  |  | pIC50 [1]: 4.72; pIC50 [2]: 5.62; pIC50 [3]: 5.92; pIC50 [4]: 6.68; pIC50 [5]: 5.38
CC(=O)N[C@H](CC(C)C)CN(CC(=O)N[C@H](CCCCN)CN(CC(=O)N[C@H](CC(C)C)CN(CC(=O)N[C@H](CCC(=O)O)CN(CC(=O)N[C@H](CC(C)C)CN(CC(=O)N[C@H](CCC(=O)O)CN(CC(=O)N[C@H](C)CN(CC(=O)N[C@H](CCCCN)CN(CC(=O)N[C@H](C)CN(CC(=O)N[C@H](CCC(=O)O)CN(CC(=O)N[C@H](CC(C)C)CN(CC(N)=O)S(=O)(=O)CC(C)C)S(C)(=O)=O)S(=O)(=O)CCN)S(C)(=O)=O)S(=O)(=O)CCN)S(=O)(=O)CC(C)C)S(=O)(=O)CCN)S(=O)(=O)CCN)S(C)(=O)=O)S(=O)(=O)CCN)S(=O)(=O)CCN [XY1] | 6.54 |  | 
CC(=O)N[C@H](CC(C)C)CN(CC(=O)N[C@H](CCCCN)CN(CC(=O)N[C@H](CC(C)C)CN(CC(=O)N[C@H](CCC(=O)O)CN(CC(=O)N[C@H](CC(C)C)CN(CC(=O)N[C@H](CCC(=O)O)CN(CC(=O)N[C@H](C)CN(CC(=O)N[C@H](CCCCN)CN(CC(=O)N[C@H](C)CN(CC(=O)N[C@H](CCC(=O)O)CN(CC(=O)N[C@H](CC(C)C)CN(CC(N)=O)S(=O)(=O)CC(C)C)S(=O)(=O)CC(C)C)S(=O)(=O)CCN)S(C)(=O)=O)S(=O)(=O)CCN)S(=O)(=O)CC(C)C)S(=O)(=O)CCN)S(=O)(=O)CCN)S(C)(=O)=O)S(=O)(=O)CCN)S(=O)(=O)CCN [XY2] | 6.48 |  | 
CC(=O)N[C@H](CC(C)C)CN(CC(=O)N[C@H](CCCCN)CN(CC(=O)N[C@H](CC(C)C)CN(CC(=O)N[C@H](CCC(=O)O)CN(CC(=O)N[C@H](CC(C)C)CN(CC(=O)N[C@H](CCC(=O)O)CN(CC(=O)N[C@H](C)CN(CC(=O)N[C@H](CCCCN)CN(CC(=O)N[C@H](C)CN(CC(=O)N[C@H](CCC(=O)O)CN(CC(=O)N[C@H](CC(C)C)CN(CC(N)=O)S(=O)(=O)CC(C)C)S(C)(=O)=O)S(=O)(=O)CCN)S(=O)(=O)CC(C)C)S(=O)(=O)CCN)S(=O)(=O)CC(C)C)S(=O)(=O)CCN)S(=O)(=O)CCN)S(C)(=O)=O)S(=O)(=O)CCN)S(=O)(=O)CCN [XY3] | 6.37 |  | 
CC(=O)N[C@H](CC(C)C)CN(CC(=O)N[C@H](CCCCN)CN(CC(=O)N[C@H](CC(C)C)CN(CC(=O)N[C@H](CCC(=O)O)CN(CC(=O)N[C@H](CC(C)C)CN(CC(=O)N[C@H](CCC(=O)O)CN(CC(=O)N[C@H](C)CN(CC(=O)N[C@H](CCCCN)CN(CC(=O)N[C@H](C)CN(CC(=O)N[C@H](CCC(=O)O)CN(CC(=O)N[C@H](CC(C)C)CN(CC(=O)NCCCCCC(=O)NCCCCCC(=O)N[C@@H](CSCC(=O)OCCOCCOCCOCCO[C@H]1CC[C@@]2(C)C(=CC[C@H]3[C@@H]4CC[C@H]([C@H](C)CCCC(C)C)[C@@]4(C)CC[C@@H]32)C1)C(N)=O)S(=O)(=O)CC(C)C)S(C)(=O)=O)S(=O)(=O)CCN)S(C)(=O)=O)S(=O)(=O)CCN)S(=O)(=O)CC(C)C)S(=O)(=O)CCN)S(=O)(=O)CCN)S(C)(=O)=O)S(=O)(=O)CCN)S(=O)(=O)CC(C)C [XY4-C1] |  | 4.53 | 
CC(=O)N[C@H](CC(C)C)CN(CC(=O)N[C@H](CCCCN)CN(CC(=O)N[C@H](CC(C)C)CN(CC(=O)N[C@H](CCC(=O)O)CN(CC(=O)N[C@H](CC(C)C)CN(CC(=O)N[C@H](CCC(=O)O)CN(CC(=O)N[C@H](C)CN(CC(=O)N[C@H](CCCCN)CN(CC(=O)N[C@H](C)CN(CC(=O)N[C@H](CCC(=O)O)CN(CC(=O)N[C@H](CC(C)C)CN(CC(=O)NCCCCCC(=O)NCCCCCC(=O)N[C@@H](CSCC(=O)OCCOCCOCCOCCOCCOCCOCCOCCO[C@H]1CC[C@@]2(C)C(=CC[C@H]3[C@@H]4CC[C@H]([C@H](C)CCCC(C)C)[C@@]4(C)CC[C@@H]32)C1)C(N)=O)S(=O)(=O)CC(C)C)S(C)(=O)=O)S(=O)(=O)CCN)S(C)(=O)=O)S(=O)(=O)CCN)S(=O)(=O)CC(C)C)S(=O)(=O)CCN)S(=O)(=O)CCN)S(C)(=O)=O)S(=O)(=O)CCN)S(=O)(=O)CC(C)C [XY4-C2] |  | 5.55 | 
CC(=O)N[C@H](CC(C)C)CN(CC(=O)N[C@H](CCCCN)CN(CC(=O)N[C@H](CC(C)C)CN(CC(=O)N[C@H](CCC(=O)O)CN(CC(=O)N[C@H](CC(C)C)CN(CC(=O)N[C@H](CCC(=O)O)CN(CC(=O)N[C@H](C)CN(CC(=O)N[C@H](CCCCN)CN(CC(=O)N[C@H](C)CN(CC(=O)N[C@H](CCC(=O)O)CN(CC(=O)N[C@H](CC(C)C)CN(CC(=O)NCCCCCC(=O)NCCCCCC(=O)N[C@@H](CSCC(=O)OCCOCCOCCOCCOCCOCCOCCOCCOCCOCCOCCOCCO[C@H]1CC[C@@]2(C)C(=CC[C@H]3[C@@H]4CC[C@H]([C@H](C)CCCC(C)C)[C@@]4(C)CC[C@@H]32)C1)C(N)=O)S(=O)(=O)CC(C)C)S(C)(=O)=O)S(=O)(=O)CCN)S(C)(=O)=O)S(=O)(=O)CCN)S(=O)(=O)CC(C)C)S(=O)(=O)CCN)S(=O)(=O)CCN)S(C)(=O)=O)S(=O)(=O)CCN)S(=O)(=O)CC(C)C [XY4-C3] |  | 6.04 | 
CC(=O)N[C@H](CC(C)C)CN(CC(=O)N[C@H](CCCCN)CN(CC(=O)N[C@H](CC(C)C)CN(CC(=O)N[C@H](CCC(=O)O)CN(CC(=O)N[C@H](CC(C)C)CN(CC(=O)N[C@H](CCC(=O)O)CN(CC(=O)N[C@H](C)CN(CC(=O)N[C@H](CCCCN)CN(CC(=O)N[C@H](C)CN(CC(=O)N[C@H](CCC(=O)O)CN(CC(=O)N[C@H](CC(C)C)CN(CC(=O)N[C@H](CO)CN(CC(=O)N[C@H](CO)CN(CC(=O)N[C@@H](CSCC(=O)OCCOCCOCCOCCOCCOCCOCCOCCO[C@H]1CC[C@@]2(C)C(=CC[C@H]3[C@@H]4CC[C@H]([C@H](C)CCCC(C)C)[C@@]4(C)CC[C@@H]32)C1)C(N)=O)S(C)(=O)=O)S(C)(=O)=O)S(=O)(=O)CC(C)C)S(C)(=O)=O)S(=O)(=O)CCN)S(C)(=O)=O)S(=O)(=O)CCN)S(=O)(=O)CC(C)C)S(=O)(=O)CCN)S(=O)(=O)CCN)S(C)(=O)=O)S(=O)(=O)CCN)S(=O)(=O)CC(C)C [XY4-C5] |  | 5.39 | 
CC(=O)N[C@H](CC(C)C)CN(CC(=O)N[C@H](CCCCN)CN(CC(=O)N[C@H](CC(C)C)CN(CC(=O)N[C@H](CCC(=O)O)CN(CC(=O)N[C@H](CC(C)C)CN(CC(=O)N[C@H](CCC(=O)O)CN(CC(=O)N[C@H](C)CN(CC(=O)N[C@H](CCCCN)CN(CC(=O)N[C@H](C)CN(CC(=O)N[C@H](CCC(=O)O)CN(CC(=O)N[C@H](CC(C)C)CN(CC(=O)N[C@H](CO)CN(CC(=O)N[C@H](CO)CN(CC(=O)N[C@@H](CSCC(=O)OCCOCCOCCOCCOCCOCCOCCOCCOCCOCCOCCOCCO[C@H]1CC[C@@]2(C)C(=CC[C@H]3[C@@H]4CC[C@H]([C@H](C)CCCC(C)C)[C@@]4(C)CC[C@@H]32)C1)C(N)=O)S(C)(=O)=O)S(C)(=O)=O)S(=O)(=O)CC(C)C)S(C)(=O)=O)S(=O)(=O)CCN)S(C)(=O)=O)S(=O)(=O)CCN)S(=O)(=O)CC(C)C)S(=O)(=O)CCN)S(=O)(=O)CCN)S(C)(=O)=O)S(=O)(=O)CCN)S(=O)(=O)CC(C)C [XY4-C6] |  | 5.58 | 
CC(=O)N[C@H](CC(C)C)CN(CC(=O)N[C@H](CCCCN)CN(CC(=O)N[C@H](CC(C)C)CN(CC(=O)N[C@H](CCC(=O)O)CN(CC(=O)N[C@H](CC(C)C)CN(CC(=O)N[C@H](CCC(=O)O)CN(CC(=O)N[C@H](C)CN(CC(=O)N[C@H](CCCCN)CN(CC(=O)N[C@H](C)CN(CC(=O)N[C@H](CCC(=O)O)CN(CC(=O)N[C@H](CC(C)C)CN(CC(N)=O)S(=O)(=O)CC(C)C)S(C)(=O)=O)S(=O)(=O)CCN)S(C)(=O)=O)S(=O)(=O)CCN)S(=O)(=O)CC(C)C)S(=O)(=O)CCN)S(=O)(=O)CCN)S(C)(=O)=O)S(=O)(=O)CCN)S(=O)(=O)CC(C)C [XY4] | 6.88 |  | 
Cc1cc(=O)n(-c2ccccc2)n1C [antipyrine] |  |  | Papp at 30 min, 200 μM ([8]; 200 μM, negative control): < 6 ×10⁻⁶ cm/s
NC(=O)N1c2ccccc2C=Cc2ccccc21 [carbamazepine] |  |  | Papp at 30 min, 50 μM ([8]; 50 μM, positive control): ~150 ×10⁻⁶ cm/s
